Data: patent publication EP2054020B1, “COSMETIC COMPOSITION COMPRISING PURINE AND/OR A PURINE DERIVATIVE AND TAURINE” (Henkel AG & Co. KGaA, priority 2006, dated 2008)

Columns and labels:
HGF [1] = assay: Growth factor release (ELISA) from reconstructed dermal papillae: HGF; format: cell-based; conditions: 24 h, Taurin 0,5 %, Coffein 0,025 %; for HGF-Freisetzung Mittelwert: quadruplicates, compared with untreated Kontrolle = 100, spread in brackets; for Steigerung der HGF-Ausschüttung: increase over untreated control
Text: (§1) Die beiden Wachstumsfaktoren Hepatocyte Growth Factor (HGF) und Keratinocyte Growth Factor (KGF) sind wichtige Regulatoren des Haarzyklus. Bei potentiell wachstumsfördemden und den vorzeitigen Haarverlust vermindernden Substanzen kann von einer Steigerung eines der ausgeschütteten Faktoren ausgegangen werden. Die Ausschüttung von HGF sowie KGF kann mit Hilfe von kommerziell erhältlichen ELISA-Kits quantifiziert werden.
(§2) Die Ergebnisse finden sich in Tabelle 5 wieder. Tabelle 5: KGF- und HGF-Freisetzung in [%] nach Behandlung rekonstruierter dermaler Papillen im Vergleich zu unbehandelten Kontrollen.

KGF [2] = assay: Differential gene expression by qRT-PCR in dermal papilla cells: KGF; format: cell-based; conditions: 24 h, Taurin 0,5 %, Coffein 0,025 %; for KGF Mittelwert: untreated Kontrolle = 1, spread in brackets, 4 biological replicates, >=2 or <=0,5 signifikant, >=1,5 or <=0,6 tendenziell; for Expression von KGF: result in words
Text: (§3) Tabelle 2: Untersuchte Lösungen
(§4) Hepatocyte Growth Factor (HGF) und Keratinocyte Growth Factor (KGF) sind wichtige Wachstumsfaktoren, die von den dermalen Papillenzellen synthetisiert werden. Im Speziellen stimuliert HGF das Follikelwachstum und KGF die Keratinozytenproliferation. Entsprechend werden HGF und KGF in der Wachstumsphase vermehrt exprimiert.
(§5) Die differentielle Genexpression wurde mittels quantitatitiver Reverse-Transkription Polymerase Kettenreaktion (qRT-PCR) bestimmt. Nach Anzucht der dermalen Papillenzellen wurden jeweils 4 biologische Replikate für 24 h mit den Lösungen gemäß Tabelle 2 inkubiert. Zur Durchführung der qRT-PCR wird zunächst mit Hilfe des RNeasy Mini Kits der Fa. Qiagen die RNA aus den dermalen Papillenzellen isoliert und mittels reverser Transkription in cDNA umgeschrieben. Bei der anschließenden PCR Reaktion, die mit Hilfe genspezifischer Primer für die jeweiligen haarrelevanten Gene durchgeführt wird und die der Amplifikation der gesuchten Genabschnitte dient, wird die Bildung der PCR-Produkte online über ein Fluoreszenzsignal detektiert. Das Fluoreszenzsignal ist dabei proportional zur Menge des gebildeten PCR-Produktes. Je stärker die Expression eines bestimmten Gens ist, desto größer ist die Menge an gebildetem PCR-Produkt und umso höher ist das Fluoreszenzsignal.
(§6) Zur Quantifizierung der Genexpression wird die unbehandelte Kontrolle gleich 1 gesetzt und die Expression der zu bestimmenden Gene darauf bezogen (x-fache Expression). Dabei werden Werte, die größer/gleich der 2-fachen Expression oder kleiner/gleich der 0,5-fachen Expression der unbehandelten Kontrolle sind als signifikant differentiell exprimiert eingestuft. Werte die größer/gleich der 1,5-fachen Expression oder kleiner/gleich der 0,6-fachen Expression der unbehandelten Kontrolle sind, werden als tendenziell differentiell exprimiert eingestuft. Die Ergebnisse sind in Tabelle 4 zusammengefasst.

KGF [3] = assay: Growth factor release (ELISA) from reconstructed dermal papillae: KGF; format: cell-based; conditions: 24 h, Taurin 0,5 %, Coffein 0,025 %; for KGF-Freisetzung Mittelwert: quadruplicates, compared with untreated Kontrolle = 100, spread in brackets; for Steigerung der KGF Ausschüttung: increase over untreated control
Text: as §1, §2

IGFBP3 = assay: Differential gene expression by qRT-PCR in dermal papilla cells: IGFBP3; format: cell-based; conditions: 24 h, Taurin 0,5 %, Coffein 0,025 %; for IGFBP3 Mittelwert: untreated Kontrolle = 1, spread in brackets, 4 biological replicates, >=2 or <=0,5 signifikant, >=1,5 or <=0,6 tendenziell; for Expression von IGF-BP3: result in words
Text: as §3
Diesen Eigenschaften gegenüber steht die Expression von IGFBP-3. Dieses Genprodukt führt neben Anderen zu einer.Verschiebung des Zyklus von der Wachstums- zur Regressionsphase. Nach Applikation von Substanzen, die Effekte am biologisch aktiven Teil des Haares hervorrufen, könnte die Bestimmung der Veränderungen der Expression dieses Gens Aussagen über Haarwuchsstimulantien oder -inhibitoren liefern.
as §5, §6

HGF [4] = assay: Differential gene expression by qRT-PCR in dermal papilla cells: HGF; format: cell-based; conditions: 24 h, Taurin 0,5 %, Coffein 0,025 %; for HGF Mittelwert: untreated Kontrolle = 1, spread in brackets, 4 biological replicates, >=2 or <=0,5 signifikant, >=1,5 or <=0,6 tendenziell; for Expression von HGF: result in words
Text: as §3, §4, §5, §6

[5] = system: kultivierte dermale Papillenzellen
Text: Die Bestimmung der Freisetzung von Laktat-Dehydrogenase (LDH) kultivierter Zellen gibt Auskunft über die Schädigung der Zellmembran. In unbeschädigten Zellen ist LDH ausschließlich im Zytoplasma lokalisiert. Erst durch Schädigung der Zellmembran kann LDH in das umgebende Kulturmedium diffundieren. Mit Hilfe eines Substrat-gekoppelten kolorimetrischen Testsystems kann die Menge an freigesetztem LDH bestimmt werden.
Zur Bestimmung möglicher zellschädigender Nebeneffekte wurden kultivierte dermale Papillenzellen mit den in Tabelle 2 aufgeführten Lösungen kultiviert und nach Behandlung die Menge an LDH im Medium analysiert. Es wurde die Zeit bestimmt, die benötigt wird, um eine definierte Menge an Farbstoff umzusetzen. […] Hierbei gilt, dass Werte < 80 % auf mögliche zellschädigende Reaktionen hindeuten.

SMILES | HGF-Freisetzung Mittelwert (HGF [1]) | Steigerung der HGF-Ausschüttung (HGF [1]) [%] | KGF Mittelwert (KGF [2]) | Expression von KGF (KGF [2]) | KGF-Freisetzung Mittelwert (KGF [3]) | Steigerung der KGF Ausschüttung (KGF [3]) [%] | IGFBP3 Mittelwert (IGFBP3) | Expression von IGF-BP3 (IGFBP3) | HGF Mittelwert (HGF [4]) | Expression von HGF (HGF [4]) | Freisetzung von LDH Mittelwert (%) [5] | zellschädigende Effekte [5]
Cn1c(=O)c2c(ncn2C)n(C)c1=O [Coffein, reference compound] | 170 (35,8) % | 70 | 1,44 (0,13) x-fache Expression | tendenzielle Aktivierung | 119 (9,7) % | 10 | 0,44 (0,07) x-fache Expression | signifikante Deaktivierung | 1,62 (0,46) x-fache Expression | tendenzielle Aktivierung | – | –
NCCS(=O)(=O)O [Taurin, 2-Aminoethansulfonsäure] | 152 (29,9) % | 52 | 1,08 (0,12) x-fache Expression | keinen signifikanten Änderungen | 110(11,5) % | 19 | 1,41 (0,18) x-fache Expression | keinen signifikanten Änderungen | 1,03 (0,30) x-fache Expression | keinen signifikanten Änderungen | 134,1% | weder nach Behandlung mit Taurin oder Coffein allein, noch mit einem Gemisch beider Verbindungen zellschädigende Effekte nachgewiesen werden können
